The text below walks through data of patent US20130267494A1, “1,4-OXAZEPANE DERIVATIVES” (priority 2010, published 2013).

Each structure is given as a SMILES string. Structures can show the parent of a compound that is named as a salt.

Format in all cases: cell-based
In assay [1] the target is T1, human norepinephrine transporter (Homo sapiens, UniProt P23975).
T1 construct: expressed in transfected cells
Nature of the assay: Inhibitory action on human norepinephrine transporter ([3H]-norepinephrine uptake in CHO cells). Particulars: relative to inhibitory activity of 10 μM DMI as 100%; for inhibition at 1 µM / inhibition at 10 µM: CHO, read-out: inhibitory rate (%). An excerpt:
(§1) Human serotonin transporter cDNA was amplified from human brain cDNA library by PCR, and inserted into pCRII-TOPO vector (manufactured by Invitrogen). The base sequence was confirmed and modified, and subcloned to pcDNA3.1 vector (manufactured by Invitrogen), whereby a human serotonin transporter expression plasmid was constructed. Human norepinephrine transporter cDNA was purchased from Invitrogen, and the base sequence was confirm and modified, and subcloned to pcDNA3.1 vector, whereby a human norepinephrine transporter expression plasmid was constructed.
(§2) The monoamine transporter expression plasmids thus prepared were introduced into CHO-K1 cells using FuGENE6 (manufactured by Roche Diagnostics) and according to the attached protocol, whereby each expressing cell was established.
CHO cells stably expressing human norepinephrine transporter were used for the measurement of human norepinephrine transporter inhibitory activity. Unless otherwise indicated, these CHO cells were cultured in Ham/F12 medium (Invitrogen) containing 10% fetal bovine serum (MOREGATE).
The cultured cells that reached almost confluent were rinsed with PBS (Invitrogen), detached with Trypsin/EDTA (Invitrogen), and collected by a centrifugal operation. The obtained cells were counted, and diluted to 3×10^5 cells per 1 mL medium, and the mixture was dispensed to a 96 well white plate (Corning) at 100 μL per well, and cultured overnight in a CO2 incubator.
(§3) Then, an assay buffer (126 mM NaCl, 4.95 mM KCl, 1.26 mM KH2PO4, 1.26 mM MgSO4, 10 mM HEPES, 2.32 mM CaCl2, 5.52 mM Glucose, 0.5% BSA) was prepared, the medium in the cell plate was removed and the assay buffer was added by 80 μL. A test compound was diluted with the assay buffer to a 10-fold concentration of the final concentration, and the mixture was dispensed to a 96 well polypropylene plate. The diluted test compound was dispensed to the cell plate by 10 μL. [3H]-Norepinephrine (GE Healthcare) was diluted with the assay buffer to 200 nM, and the mixture was dispensed to the cell plate by 10 μL. At 45 min from [3H]-norepinephrine addition, the assay buffer was removed by suction, and the plate was washed twice with 150 μL of PBS (Invitrogen) per well. Microscinti20 (PerkinElmer) was dispensed to each well by 100 μL, and the mixture was stirred for about 30 min. The radioactivity was measured by TopCount (PerkinElmer).
The inhibitory activity of each compound (10 μM) was calculated as a relative activity value based on the inhibitory activity of 10 μM DMI (norepinephrine transporter inhibitor) as 100%.
The inhibitory activity of each compound (1 μM) was calculated as a relative activity value based on the inhibitory activity of 10 μM DMI (norepinephrine transporter inhibitor) as 100%.

The target of assay [2] is T2, human serotonin transporter (Homo sapiens, UniProt P31645).
T2 construct: expressed in transfected cells
Nature of the assay: Inhibitory action on human serotonin transporter ([3H]-5-hydroxytryptamine uptake in CHO cells). Particulars: relative to inhibitory activity of 10 μM Paroxetine as 100%; for inhibition at 1 µM / inhibition at 10 µM: CHO, read-out: inhibitory rate (%).
Excerpt: as §1, §2
CHO cells stably expressing a human serotonin transporter were used for the measurement of human serotonin transporter inhibitory activity. Unless particularly indicated, these CHO cells were cultured in a Ham/F12 medium (Invitrogen) containing 10% fetal bovine serum (MOREGATE).
The cultured cells that reached almost confluent were rinsed with PBS (Invitrogen), detached with Trypsin/EDTA (Invitrogen), and collected by a centrifugal operation. The obtained cells were counted, and diluted to 3×10^5 cells per 1 mL medium, the mixture was dispensed to a 96 well white plate (Corning) at 100 μL per well, and cultured overnight in a CO2 incubator.
as §3, with “[3H]-5-Hydroxytryptamine” for “[3H]-Norepinephrine”, “20” for “45”, “[3H]-5-hydroxytryptamine” for “[3H]-norepinephrine”
The inhibitory activity of each compound (10 μM) was calculated as a relative activity value based on the inhibitory activity of 10 μM Paroxetine (serotonin transporter inhibitor) as 100%.
In addition, the inhibitory activity of each compound (1 μM) was calculated as a relative activity value based on the inhibitory activity of 10 μM Paroxetine (serotonin transporter inhibitor) as 100%.

Assay [3] deals with T3, human dopamine transporter (Homo sapiens, UniProt Q01959).
T3 construct: expressed in transfected cells
The experiment in a line: Inhibitory action on human dopamine transporter ([3H]-dopamine uptake in CHO cells). Particulars: relative to inhibitory activity of 100 μM Nomifensine as 100%; for inhibition at 1 µM / inhibition at 10 µM: CHO, read-out: inhibitory rate (%).
Excerpt: SRα promoter contained in pTB1411 described in JP-A-H5-076385 was cleaved with restriction enzyme […](manufactured by TAKARA BIO INC.), blunt-ended, further cleaved with restriction enzyme EcoRI (manufactured by TAKARA BIO INC.), and fragmented. On the other hand, pCI vector was cleaved with restriction enzyme BglII (manufactured by TAKARA BIO INC.), blunt-ended with T4 DNA polymerase, and further cleaved with restriction enzyme EcoRI (manufactured by TAKARA BIO INC.). Into this site was inserted an SRa promoter fragment to give pCI-SRa. Then, pCI-SRa was cleaved with restriction enzyme ClaI (manufactured by TAKARA BIO INC.) and blunt-ended. Into this site was inserted a 1.63 Kb fragment obtained by cleaving pGFP-C1 (manufactured by TOYOBO) with restriction enzyme Bsu36I (manufactured by Daiichi Pure Chemicals Co., Ltd.) followed by blunt-ending, whereby pMSRα neo was prepared. Human dopamine transporter cDNA was amplified from human substantia nigra cDNA library by PCR, and inserted into the pCRII vector (manufactured by Invitrogen). The base sequence was confirmed, modified and subcloned to pMSRα neo, whereby a human dopamine transporter expression plasmid was constructed.
as §2
CHO cells stably expressing human dopamine transporter were used for the measurement of human dopamine transporter inhibitory activity. Unless otherwise indicated, these CHO cells were cultured in Ham/F12 medium (Invitrogen) containing 10% fetal bovine serum (MOREGATE).
One day before the assay, the cultured cells that reached almost confluent were rinsed with PBS (Invitrogen), detached with Trypsin/EDTA (Invitrogen), and collected by a centrifugal operation. The obtained cells were counted, and diluted to 3×10^5 cells per 1 mL medium, and the mixture was dispensed to a 96 well white plate (Corning) at 100 μL per well, and cultured overnight in a CO2 incubator.
as §3, with “On the day of the test,” for “Then,”, “[3H]-Dopamine” for “[3H]-Norepinephrine”, “nM, cold dopamine was diluted to 10 μM,” for “nM,”, “60” for “45”, “[3H]-dopamine” for “[3H]-norepinephrine”
The inhibitory activity of each compound (10 μM) was calculated as a relative activity value based on the inhibitory activity of 100 μM Nomifensine (dopamine transporter inhibitor) as 100%.
The inhibitory activity of each compound (1 μM) was m calculated as a relative activity value based on the inhibitory activity of 100 μM Nomifensine (dopamine transporter inhibitor) as 100%.

Setting [4] is: compound 10 μM, CHO cells expressing human serotonin transporter.

T2 sequence (P31645 whole entry): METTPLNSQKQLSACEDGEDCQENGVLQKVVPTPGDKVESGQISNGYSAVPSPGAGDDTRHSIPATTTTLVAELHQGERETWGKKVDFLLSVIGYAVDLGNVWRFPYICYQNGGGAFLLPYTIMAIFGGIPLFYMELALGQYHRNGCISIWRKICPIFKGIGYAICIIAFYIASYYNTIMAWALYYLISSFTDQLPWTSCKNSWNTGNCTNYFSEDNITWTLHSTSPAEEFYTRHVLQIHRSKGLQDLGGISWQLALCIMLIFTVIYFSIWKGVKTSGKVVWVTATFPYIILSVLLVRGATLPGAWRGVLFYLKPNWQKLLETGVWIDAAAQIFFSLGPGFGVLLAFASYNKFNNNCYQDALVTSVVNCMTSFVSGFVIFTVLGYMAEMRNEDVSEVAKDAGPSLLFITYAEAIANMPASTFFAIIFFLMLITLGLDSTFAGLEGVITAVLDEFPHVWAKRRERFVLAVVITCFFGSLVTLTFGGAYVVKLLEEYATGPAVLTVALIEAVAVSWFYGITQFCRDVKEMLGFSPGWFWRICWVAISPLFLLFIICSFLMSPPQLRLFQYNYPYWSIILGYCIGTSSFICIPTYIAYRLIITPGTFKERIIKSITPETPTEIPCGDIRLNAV
T1 sequence (P23975 whole entry): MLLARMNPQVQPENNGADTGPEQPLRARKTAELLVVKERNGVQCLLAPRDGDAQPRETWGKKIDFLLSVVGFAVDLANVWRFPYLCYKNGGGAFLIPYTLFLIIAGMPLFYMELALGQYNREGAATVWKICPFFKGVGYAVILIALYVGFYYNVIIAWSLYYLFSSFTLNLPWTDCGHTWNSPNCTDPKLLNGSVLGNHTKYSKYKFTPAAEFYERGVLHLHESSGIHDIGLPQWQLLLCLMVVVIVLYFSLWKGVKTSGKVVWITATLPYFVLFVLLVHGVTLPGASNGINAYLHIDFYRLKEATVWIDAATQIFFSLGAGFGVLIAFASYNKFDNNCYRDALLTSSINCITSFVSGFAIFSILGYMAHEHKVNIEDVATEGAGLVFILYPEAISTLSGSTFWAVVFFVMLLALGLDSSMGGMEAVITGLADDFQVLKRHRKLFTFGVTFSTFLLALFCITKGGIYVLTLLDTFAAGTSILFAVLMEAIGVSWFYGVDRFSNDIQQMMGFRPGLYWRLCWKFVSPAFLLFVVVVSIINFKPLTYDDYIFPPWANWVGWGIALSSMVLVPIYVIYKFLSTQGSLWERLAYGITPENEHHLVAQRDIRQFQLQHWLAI
T3 sequence (Q01959 whole entry): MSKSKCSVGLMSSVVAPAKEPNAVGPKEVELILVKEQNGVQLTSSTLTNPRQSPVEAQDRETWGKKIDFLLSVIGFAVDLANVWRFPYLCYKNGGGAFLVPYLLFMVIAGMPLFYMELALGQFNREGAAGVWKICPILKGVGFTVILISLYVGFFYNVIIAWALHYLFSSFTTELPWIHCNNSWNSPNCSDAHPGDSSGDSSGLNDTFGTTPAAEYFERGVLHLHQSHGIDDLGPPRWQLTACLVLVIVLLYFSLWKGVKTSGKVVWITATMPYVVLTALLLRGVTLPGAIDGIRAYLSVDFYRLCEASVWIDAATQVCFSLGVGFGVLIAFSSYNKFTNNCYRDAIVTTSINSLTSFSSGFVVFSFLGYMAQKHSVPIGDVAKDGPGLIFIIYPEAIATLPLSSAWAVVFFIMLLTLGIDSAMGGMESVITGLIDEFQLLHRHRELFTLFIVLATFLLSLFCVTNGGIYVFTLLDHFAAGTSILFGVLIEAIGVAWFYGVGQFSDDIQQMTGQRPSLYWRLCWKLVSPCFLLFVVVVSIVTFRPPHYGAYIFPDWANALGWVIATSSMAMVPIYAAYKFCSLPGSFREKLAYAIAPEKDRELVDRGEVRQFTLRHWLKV

For the compound `CS(=O)(=O)C[C@H]1CNCCOC1c1ccc(F)c(Cl)c1` (mixture of isomers) [Example 12, (6RS,7SR)-7-(3-chloro-4-fluorophenyl)-6-[(methylsulfonyl)methyl]-1,4-oxazepane monohydrochloride], the values for the inhibition at 1 µM in assay [1] (compound 1 μM), in assay [2] (compound 1 μM) and in assay [3] (compound 1 μM) were 97%, 87% and 39%, respectively. Besides, the inhibition at 10 µM in assay [1] (compound 10 μM) stood at 100%; in assay [2] (setting [4]), 97%; in assay [3] (compound 10 μM) it was 90%.

Regarding `OC[C@H]1NCCOC[C@@H]1c1ccc(Cl)c(Cl)c1` (racemic) [Example 14, [(5RS,6SR)-6-(3,4-dichlorophenyl)-1,4-oxazepan-5-yl]methanol monohydrochloride], the “inhibitory rate (%)” value came out at 98% in assay [1] (compound 1 μM); 100% in assay [1] (compound 10 μM); 31% in assay [2] (compound 1 μM); 79% in assay [2] (setting [4]); 87% in assay [3] (compound 1 μM); 99% in assay [3] (compound 10 μM).

In the case of `COC1(c2ccc(Cl)c(Cl)c2)CNCCOC1` (racemic) [Example 17, (6RS)-6-(3,4-dichlorophenyl)-6-methoxy-1,4-oxazepane monohydrochloride], the inhibition at 1 µM in assay [1] (compound 1 μM) amounted to 75%; in assay [2] (compound 1 μM), 70%; in assay [3] (compound 1 μM), 19%. For the same compound, the inhibition at 10 µM in assay [1] (compound 10 μM) is 97%; in assay [2] (setting [4]), 96%; in assay [3] (compound 10 μM), 53%.

For the compound `NS(=O)(=O)NCC1(c2ccc(Cl)c(Cl)c2)CCNCCO1` (racemic) [Example 22, N-{[(7RS)-7-(3,4-dichlorophenyl)-1,4-oxazepan-7-yl]methyl}sulfamide monohydrochloride], the inhibition at 1 µM in assay [1] (compound 1 μM) turned out to be 97%; in assay [2] (compound 1 μM) it was 82%; in assay [3] (compound 1 μM) it was 25%. Besides, the results for the inhibition at 10 µM in assay [1] (compound 10 μM), in assay [2] (setting [4]) and in assay [3] (compound 10 μM) were 99%, 98% and 63%, respectively.

Take `CS(=O)(=O)NCC1(c2ccc(Cl)c(Cl)c2)CNCCCO1` (racemic) [Example 24, N-{[(2RS)-2-(3,4-dichlorophenyl)-1,4-oxazepan-2-yl]methyl}methanesulfonamide monohydrochloride]: the figures for the inhibition at 1 µM in assay [1] (compound 1 μM), in assay [2] (compound 1 μM) and in assay [3] (compound 1 μM) were 94%, 87% and 20%, respectively. Further, the inhibition at 10 µM worked out at 99% in assay [1] (compound 10 μM), 99% in assay [2] (setting [4]) and 50% in assay [3] (compound 10 μM).

As to `OC[C@H]1OCCNC[C@H]1c1ccc(Cl)c(Cl)c1` (racemic) [Example 25, [(6RS,7SR)-6-(3,4-dichlorophenyl)-1,4-oxazepan-7-yl]methanol monohydrochloride], the inhibition at 1 µM in assay [1] (compound 1 μM) was found to be 99%; in assay [2] (compound 1 μM), 29%; in assay [3] (compound 1 μM) it was 46%. For the same compound, the results for the inhibition at 10 µM in assay [1] (compound 10 μM), in assay [2] (setting [4]) and in assay [3] (compound 10 μM) were 100%, 65% and 94%, respectively.

Take `CS(=O)(=O)C[C@@H]1CNCCO[C@@H]1c1ccc(Cl)c(Cl)c1` (racemic) [Example 50, (6RS,7SR)-7-(3,4-dichlorophenyl)-6-[(methylsulfonyl)methyl]-1,4-oxazepane monohydrochloride]: the inhibition at 1 µM was 98% in assay [1] (compound 1 μM), 100% in assay [2] (compound 1 μM) and 64% in assay [3] (compound 1 μM).

Consider `CCNC(=O)NC[C@@H]1CNCCO[C@@H]1c1ccc(Cl)c(Cl)c1` (racemic) [Example 52, 1-{[(6RS,7RS)-7-(3,4-dichlorophenyl)-1,4-oxazepan-6-yl]methyl}-3-ethylurea monohydrochloride], for which the results for the inhibition at 1 µM in assay [1] (compound 1 μM), in assay [2] (compound 1 μM) and in assay [3] (compound 1 μM) were 97%, 99% and 29%, respectively.
